Patent publication US6541505B1, “Substituted (aminoiminomethyl or aminomethyl) benzoheteroaryl compounds” (Aventis Pharmaceuticals Inc., priority 1998, dated 2003)
Where a name gives a salt, the structure may show the parent alone.

Compared with `CN(C)CCCOc1ccc(-c2ccc(C(=O)NCCc3ccc4[nH]cc(C(=N)N)c4c3)cc2)cn1` (as salt: salt) [Example 1aaaaab, N-[2-(3-Carbamimidoyl-1H-indol-5-yl)ethyl]-4-[6-(3-dimethylaminopropoxy)pyridin-3-yl]benzamide], `CN(C)CCOc1ccc(-c2ccc(C(=O)NCCc3ccc4[nH]cc(C(=N)N)c4c3)cc2)cn1` [Example 1aaaaaz, N-(2-[3-Carbamimidoylindol-5-yl]ethyl)-4-(6-[2-dimethylaminoethoxy]pyridin-3-yl)benzamide] is lower in melting point: 84 to 86 °C for the first, 57 to 59 °C for the second.

First: COCCOc1nccc(-c2ccc(C(=O)NCCc3ccc4[nH]cc(C(=N)N)c4c3)cc2)n1 (as salt: salt) [Example 1aaaal, N-[2-(3-Carbamimidoyl-1H-indol-5-yl)-ethyl]-4-[2-(2-methoxyethoxy)-pyrimidin-4-yl]benzamide]
Second: CN(C)CCOc1nccc(-c2ccc(C(=O)NCCc3ccc4[nH]cc(C(=N)N)c4c3)cc2)n1 [Example 1aaaar, N-[2-(3-Carbamimidoyl-1H-indol-5-yl)ethyl]-4-[2-(2-dimethylaminoethoxy)pyrimidin-4-yl]benzamide]
The melting point of the first is higher: 122 to 124 °C for the first, 106 to 107 °C for the second.

First: N=C(N)c1c[nH]c2ccc(CCNC(=O)c3ccc(-c4ccnc(OCCN5CCCC5)n4)cc3)cc12 (as salt: salt) [Example 1aaaaq, N-[2-(3-Carbamimidoyl-1H-indol-5-yl)ethyl]-4-[2-(2-pyrrolidin-1-yl-ethoxy)pyrimidin-4-yl]benzamide]
Second: N=C(N)c1c[nH]c2ccc(CCNC(=O)c3ccc(-c4ccnc(NCCCCN5CCCCC5)n4)cc3)cc12 [Example 1aaan, N-[2-(3-Carbamimidoyl-1H-indol-5-yl)ethyl]-4-[2-(4-piperidin-1-ylbutylamino)pyrimidin-4-yl]benzamide]
The melting point of the first is higher: 104 to 105 °C for the first, 94 to 96 °C for the second.

Compared with `CN1CCN(c2nccc(-c3ccc(C(=O)NCCc4ccc5[nH]cc(C(=N)N)c5c4)cc3)n2)CC1` (as salt: salt) [Example 1aaae, N-[2-(3-Carbamimidoyl-1H-indol-5-yl)ethyl]-4-[2-(4-methylpiperazin-1-yl)pyrimidin-4-yl]benzamide], `N=C(N)c1c[nH]c2ccc(CCNC(=O)c3ccc(-c4ccnc(N5CCCC5)n4)cc3)cc12` [Example 1aaah, N-[2-(3-Carbamimidoyl-1H-indol-5-yl)-ethyl]-4-(2-pyrrolidin-1-ylpyrimidin-4-yl)benzamide] is higher in melting point: 111 to 113 °C for the first, 134 to 136 °C for the second.

First: N=C(N)c1c[nH]c2ccc(CCNC(=O)c3ccc(-c4ccnc(CNCCCC(=O)O)n4)cc3)cc12 (as salt: salt) [Example 1aaaf, 4-[(4-{4-[2-(3-Carbamimidoyl-1H-indol-5-yl)ethylcarbamoyl]phenyl}pyrimidin-2-yl)methylamino]butyric acid]
Second: CN(C)CCCCNc1nccc(-c2ccc(C(=O)NCCc3ccc4[nH]cc(C(=N)N)c4c3)cc2)n1 (as salt: salt) [Example 1aaas, N-[2-(3-Carbamimidoyl-1H-indol-5-yl)ethyl]-4-[2-(4-dimethylaminobutylamino)pyrimidin-4-yl]benzamide]
The melting point of the first is lower: 100 to 104 °C for the first, 156 to 159 °C for the second.

First: N=C(N)c1c[nH]c2ccc(CCNC(=O)c3ccc(-c4ccnc(N5CCCC5CO)n4)cc3)cc12 (stereo not drawn) (as salt: salt) [Example 1aaaj, N-[2-(3-Carbamimidoyl-1H-indol-5-yl)-ethyl]-4-[2-(2-hydroxymethylpyrrolidin-1-yl)-pyrimidin-4-yl]benzamide]
Second: N=C(N)c1c[nH]c2ccc(CCNC(=O)c3ccc(-c4ccnc(N5CCCC5C(N)=O)n4)cc3)cc12 (stereo not drawn) (as salt: salt) [Example 1aaau, 1-(4-{4-[2-(3-Carbamimidoyl-1H-indol-5-yl)ethylcarbamoyl]phenyl}pyrimidin-2-yl)pyrrolidine-2-carboxylic acid amide]
The melting point of the first is lower: 117 to 120 °C for the first, 139 to 141 °C for the second.

`CN(CC(N)=O)c1nccc(-c2ccc(C(=O)NCCc3ccc4[nH]cc(C(=N)N)c4c3)cc2)n1` (as salt: salt) [Example 1aaak, N-[2-(3-Carbamimidoyl-1H-indol-5-yl)-ethyl]-4-[2-(carbamoylmethyl-N-methylamino)-pyrimidin-4-yl]benzamide] and `CN(CCO)c1nccc(-c2ccc(C(=O)NCCc3ccc4[nH]cc(C(=N)N)c4c3)cc2)n1` (as salt: salt) [Example 1aaav, N-[2-(3-Carbamimidoyl-1H-indol-5-yl)ethyl]-4-{2-[(2-hydroxy-ethyl)-N-methylamino]pyrimidin-4-yl}benzamide] cannot be ordered by melting point: 96 to 98 °C for the first, 97 to 100 °C for the second.

Compared with `CN(C)CCCCCCNc1nccc(-c2ccc(C(=O)NCCc3ccc4[nH]cc(C(=N)N)c4c3)cc2)n1` (as salt: salt) [Example 1aaar, N-[2-(3-Carbamimidoyl-1H-indol-5-yl)ethyl]-4-[2-(6-dimethylaminohexylamino)pyrimidin-4-yl]benzamide], `CN(C)CCCCCCOc1nccc(-c2ccc(C(=O)NCCc3ccc4[nH]cc(C(=N)N)c4c3)cc2)n1` [Example 1aaaan, N-[2-(3-Carbamimidoyl-1H-indol-5-yl)ethyl]-4-[2-(6-dimethylaminohexyloxy)pyrimidin-4-yl]benzamide] is lower in melting point: 89 to 91 °C for the first, 82 to 84 °C for the second.

First: N=C(N)c1c[nH]c2ccc(CCNC(=O)c3ccc(-c4ccnc(NC5CC6CCC5C6)n4)cc3)cc12 (stereo not drawn) (as salt: salt) [Example 1aaat, 4-[2-(Bicyclo[2.2.1]hept-2-ylamino)pyrimidin-4-yl]-N-[2-(3-carbamimidoyl-1H-indol-5-yl)ethyl]benzamide]
Second: N=C(N)c1c[nH]c2ccc(CCNC(=O)c3ccc(-c4ccnc(OC5CCCNC5=O)n4)cc3)cc12 (stereo not drawn) [Example 1aaaap, N-[2-(3-Carbamimidoyl-1H-indol-5-yl)ethyl]-4-[2-(2-oxopiperidin-3-yloxy)pyrimidin-4-yl]benzamide]
The melting point of the first is higher: 152 to 155 °C for the first, 145 to 147 °C for the second.

First: N=C(N)c1c[nH]c2ccc(CCNC(=O)c3ccc(-c4cccnc4)cc3)cc12 [Example 1a, N-(2-[3-Carbamimidoyl-5-indolyl]ethyl)-4-pyrid-3-ylbenzamide]
Second: N=C(N)c1c[nH]c2ccc(CCNC(=O)c3ccc(-c4ccncc4)cc3)cc12 [Example 1aaaaaaa, N-(2-[3-Carbamimidoylindol-5-yl]ethyl)-4-pyrid-4-ylbenzamide]
The melting point of the first is lower: 55 to 58 °C for the first, 113 to 116 °C for the second.

First: N=C(N)c1c[nH]c2ccc(CCNC(=O)c3ccc(-n4cncn4)nc3)cc12 [Example 1aa, N-(2-[3-Carbamimidoylindol-5-yl]ethyl)-6-(1,2,4)triazol-1-ylnicotinamide]
Second: CC(Oc1nccc(-c2ccc(C(=O)NCCc3ccc4[nH]cc(C(=N)N)c4c3)cc2)n1)C(N)=O (stereo not drawn) [Example 1aaaam, N-[2-(3-Carbamimidoyl-1H-indol-5-yl)ethyl]-4-[2-(1-carbamoylethoxy)pyrimidin-4-yl]benzamide]
The melting point of the first is higher: 196 to 199 °C for the first, 159 to 161 °C for the second.

Compared with `CN(C)CCNC(=O)Cn1cc(-c2ccc(C(=O)NCCc3ccc4[nH]cc(C(=N)N)c4c3)cc2)ccc1=O` [Example 1aaaaad, N-[2-(3-Carbamimidoyl-1H-indol-5-yl)-ethyl]-4-{1-[(2-dimethylaminoethylcarbamoyl)methyl]-6-oxo-1,6-dihydropyridin-3-yl}benzamide], `CN(C)CCOc1cccc(-c2ccc(C(=O)NCCc3ccc4[nH]cc(C(=N)N)c4c3)cc2)c1` [Example 1aaaas, 3′-(2-Dimethylaminoethoxy)biphenyl-4-carboxylic acid [2-(3-carbamimidoyl-1H-indol-5-yl)ethyl]amide] is higher in melting point: 71 to 75 °C for the first, 99 to 101 °C for the second.

First: CN(C)CCOc1ccccc1-c1ccc(C(=O)NCCc2ccc3[nH]cc(C(=N)N)c3c2)cc1 [Example 1aaaau, 2′-(2-Dimethylaminoethoxy)biphenyl-4-carboxylic acid [2-(3-carbamimidoyl-1H-indol-5-yl)ethyl]amide]
Second: CN(C)CCCOc1ccccc1-c1ccc(C(=O)NCCc2ccc3[nH]cc(C(=N)N)c3c2)cc1 [Example 1aaaav, 2′-(3-Dimethylaminopropoxy)biphenyl-4-carboxylic acid [2-(3-carbamimidoyl-1H-indol-5-yl)ethyl]amide]
The melting point of the first is lower: 73 to 76 °C for the first, 76 to 78 °C for the second.

Compared with `CN(C)CCCOc1cccc(-c2ccc(C(=O)NCCc3ccc4[nH]cc(C(=N)N)c4c3)cc2)c1` [Example 1aaaaw, 3′-(3-Dimethylaminopropoxy)biphenyl-4-carboxylic acid [2-(3-carbamimidoyl-1H-indol-5-yl)ethyl]amide], `CCN(CC)CCCCNc1nccc(-c2ccc(C(=O)NCCc3ccc4[nH]cc(C(=N)N)c4c3)cc2)n1` [Example 1aaap, N-[2-(3-Carbamimidoyl-1H-indol-5-yl)ethyl]-4-[2-(4-diethylaminobutylamino)pyrimidin-4-yl]benzamide] is lower in melting point: 84 to 86 °C for the first, 73 to 76 °C for the second.

Compared with `N=C(N)c1c[nH]c2ccc(CCNC(=O)c3ccc(-c4ccnc(OCC(F)(F)F)n4)cc3)cc12` [Example 1aaag, N-[2-(3-Carbamimidoyl-1H-indol-5-yl)ethyl]-4-[2-(2,2,2-trifluoroethoxy)pyrimidin-4-yl]benzamide], `N=C(N)c1c[nH]c2ccc(CCNC(=O)c3ccc(-c4ccnc(NCCCCCCN5CCCC5)n4)cc3)cc12` [Example 1aaal, N-[2-(3-Carbamimidoyl-1H-indol-5-yl)ethyl]-4-[2-(6-pyrrolidin-1-yl-hexylamino)pyrimidin-4-yl]benzamide] is lower in melting point: 194 to 195 °C for the first, 159 to 161 °C for the second.

Compared with `N=C(N)c1c[nH]c2ccc(CCNC(=O)c3ccc(-c4ccnc(NCCCCCCN5CCCCC5)n4)cc3)cc12` [Example 1aaam, N-[2-(3-Carbamimidoyl-1H-indol-5-yl)ethyl]-4-[2-(6-piperidin-1-ylhexylamino)pyrimidin-4-yl]benzamide], `N=C(N)c1c[nH]c2ccc(CCNC(=O)c3ccc(-c4ccnc(NCCCCCCN5CCOCC5)n4)cc3)cc12` [Example 1aaaq, N-[2-(3-Carbamimidoyl-1H-indol-5-yl)ethyl]-4-[2-(6-morpholin-4-ylhexylamino)pyrimidin-4-yl]benzamide] is higher in melting point: 110 to 113 °C for the first, 129 to 130 °C for the second.

Molecule `COc1ccc(-c2ccc(C(=O)NCCc3ccc4[nH]cc(C(=N)N)c4c3)cc2)cc1OC` (as salt: salt) [Example 1o, 3′,4′-Dimethoxybiphenyl-4-carboxylic acid (2-[3-carbamimidoylindol-5-yl]ethyl)amide] has a melting point of over 250 °C.
